According to US20110251160A1 (priority 2008, published 2011):
Several values for one entry are separate records, joined by “and”; a condition that tells them apart may be missing. Identical values can stand only once. Like-named read-outs stand apart in the source and are kept apart here.

Columns and labels:
[1] = system: patients with chronic atrial fibrillation; assay: PETRO study, phase 2 12-week dose finding study; type: in vivo, human; conditions: in vivo
Description: Primary endpoints were bleeding events and changes in D-dimer. […] Minor bleeding was dose related.

[2] = system: patients with atrial fibrillation at risk of stroke; conditions: for Stroke, systemic embolism, pulmonary embolism, myocardial infarction death or major bleed, Rate / Stroke, systemic embolism, pulmonary embolism, myocardial infarction death or major bleed, RR: net benefit
Description: Median follow-up was 2.0 years and the primary outcome was stroke or systemic embolism.
Patients were recruited from 951 clinical centers in 44 countries. In brief, patients were eligible if they had atrial fibrillation documented on electrocardiogram at screening or within 6 months; and at least one of the following: prior stroke or transient ischemic attack; left ventricular ejection fraction less than 40%; New York Heart Association heart failure symptoms of Class 2 or greater within 6 months; age at least 75 years; or age at least 65 years with diabetes mellitus, hypertension or coronary artery disease.
The time in therapeutic range was calculated by the method of Rosendaal (Rosendaal F R, et al., A method to determine the optimal intensity of oral anticoagulant therapy, Thromb Haemost, 1993, 69:236-239), excluding INRs from the first week and after discontinuations. […] Concomitant use of aspirin (less than 100 mg/day) or other antiplatelet agents was allowed.
Liver function testing was performed monthly during the first year of follow-up.
The primary study outcome was stroke or systemic embolism. The primary safety outcome was major hemorrhage. Secondary outcomes were stroke, systemic embolism and death. Other outcomes were myocardial infarction, pulmonary embolism, transient ischemic attacks, and hospitalizations. The primary net benefit-risk outcome was the composite of stroke, systemic embolism, pulmonary embolism, myocardial infarction, death or major hemorrhage. Stroke was defined as sudden onset of focal neurological deficit consistent with the territory of a major cerebral artery and categorized as ischemic, hemorrhagic or unspecified. Hemorrhagic transformation of ischemic stroke was not considered as hemorrhagic stroke. Intracranial hemorrhage included hemorrhagic stroke and sub-dural or sub-arachnoid hemorrhage. Systemic embolism was an acute vascular occlusion of an extremity or organ documented by imaging, surgery or autopsy. Major bleeding was defined as a reduction in hemoglobin level of at least […] or transfusion of at least 2 units of blood or symptomatic bleeding in a critical area or organ. Life-threatening bleeding was a subset of major bleeding that included fatal bleeding, symptomatic intracranial bleeding, bleeding with hemoglobin decrease of more than […] or requiring transfusion of more than 4 units of blood or requiring inotropic agents or necessitating surgery. All other bleeding was considered minor.
All primary and secondary outcome events were blindly and doubly adjudicated. An international team of adjudicators reviewed documents in local languages after blinding; or documents were translated by a independent group and blinded centrally. All transient ischemic attacks were reviewed to ensure that strokes had not been missed. To detect possible unreported events, symptom questionnaires were regularly administered to patients, and adverse events and hospitalization reports were scrutinized for unreported primary or secondary outcomes.
If maximum of the two p-values was greater than 0.025, the minimum of the two p-values must be less than 0.0125, one-sided, to claim statistical significance. All analyses were based on intention-to-treat.

Plasma protein binding = type: in vitro ADME; conditions: read-out: Bound to plasma proteins
[3] = system: activated partial thromboplastin time (aPTT), ecarin clotting time, and thrombin clotting time; assay: Clotting time prolongation
[4] = system: patients with atrial fibrillation
Description: PETRO-Ex began while the PETRO study was ongoing and investigators were initially kept blinded to patient treatment group until PETRO was completed. Unblinding investigators to patient treatment was possible thereafter.
Data were summarized descriptively; no hypothesis was to be tested. Events were analyzed on the basis of the treatment at onset. Incidences were reported as number of patients with events as well as normalized to 100 patient years on the respective treatment.
Patients who completed PETRO on 50 mg b.i.d. were switched to 150 mg q.d. upon entry in the PETRO-Ex study (N=93 patients). […] Patients who were down titrated to 50 mg q.d. based on a glomerular filtration rate ≦50 mL/min during PETRO were excluded from the long-term trial; patients down-titrated in other dose levels remained on the q.d. treatment at that dose.
The former is represented by the number of thromboembolic events per 100 years, the latter by the number of bleeding events per 100 years.

[5] = in vivo; cited from earlier work
[6] = Clinical pharmacokinetics and pharmacodynamics of dabigatran etexilate; conditions: human, plasma, oral
[7] = individual patients with LFT abnormalities, one table line per patient

[H]/N=C(/N)c1ccc(NCc2nc3cc(C(=O)N(CCC(=O)O)c4ccccn4)ccc3n2C)cc1 [Dabigatran]
Change in D-dimer levels [1]: comparable to warfarin | All Death, Rate ([2]; Dabigatran 110 mg b.i.d.): 3.74 /100 Person Years | Disabling or Fatal Stroke Modified Rankin 3-6, Rate ([2]; Dabigatran 110 mg b.i.d.): 0.95 /100 Person Years | First Hospitalization, Rate ([2]; Dabigatran 110 mg b.i.d.): 25.1 /100 Person Years | Myocardial Infarction, Rate ([2]; Dabigatran 110 mg b.i.d.): 0.73 /100 Person Years | Non-disabling Stroke Modified Rankin 0-2, Rate ([2]; Dabigatran 110 mg b.i.d.): 0.51 /100 Person Years | Pulmonary embolism, Rate ([2]; Dabigatran 110 mg b.i.d.): 0.12 /100 Person Years | Stroke or systemic embolism, Rate ([2]; Dabigatran 110 mg b.i.d.): 1.55 /100 Person Years | Stroke, Hemorrhagic, Rate ([2]; Dabigatran 110 mg b.i.d.): 0.12 /100 Person Years | Stroke, Rate ([2]; Dabigatran 110 mg b.i.d.): 1.45 /100 Person Years | Vascular Death, Rate ([2]; Dabigatran 110 mg b.i.d.): 2.42 /100 Person Years | All Death, RR ([2]; Dabigatran 110 mg vs. Warfarin): 0.90 | Disabling or Fatal Stroke Modified Rankin 3-6, RR ([2]; Dabigatran 110 mg vs. Warfarin): 0.94 | First Hospitalization, RR ([2]; Dabigatran 110 mg vs. Warfarin): 0.92 | Myocardial Infarction, RR ([2]; Dabigatran 110 mg vs. Warfarin): 1.35 | Non-disabling Stroke Modified Rankin 0-2, RR ([2]; Dabigatran 110 mg vs. Warfarin): 0.87 | Pulmonary embolism, RR ([2]; Dabigatran 110 mg vs. Warfarin): 1.26 | Stroke or systemic embolism, RR ([2]; Dabigatran 110 mg vs. Warfarin): 0.91 | Stroke, Hemorrhagic, RR ([2]; Dabigatran 110 mg vs. Warfarin): 0.31 | Stroke, Ischemic or Unspecified, RR ([2]; Dabigatran 110 mg vs. Warfarin): 1.12 | Stroke, RR ([2]; Dabigatran 110 mg vs. Warfarin): 0.92 | Vascular Death, RR ([2]; Dabigatran 110 mg vs. Warfarin): 0.90 | All Death, Rate ([2]; Dabigatran 150 mg b.i.d.): 3.63 /100 Person Years | Disabling or Fatal Stroke Modified Rankin 3-6, Rate ([2]; Dabigatran 150 mg b.i.d.): 0.67 /100 Person Years | First Hospitalization, Rate ([2]; Dabigatran 150 mg b.i.d.): 26.7 /100 Person Years | Myocardial Infarction, Rate ([2]; Dabigatran 150 mg b.i.d.): 0.74 /100 Person Years | Non-disabling Stroke Modified Rankin 0-2, Rate ([2]; Dabigatran 150 mg b.i.d.): 0.36 /100 Person Years | Pulmonary embolism, Rate ([2]; Dabigatran 150 mg b.i.d.): 0.15 /100 Person Years | Stroke or systemic embolism, Rate ([2]; Dabigatran 150 mg b.i.d.): 1.11 /100 Person Years | Stroke, Hemorrhagic, Rate ([2]; Dabigatran 150 mg b.i.d.): 0.10 /100 Person Years | Stroke, Ischemic or Unspecified, Rate ([2]; Dabigatran 150 mg b.i.d.): 0.92 /100 Person Years | Stroke, Rate ([2]; Dabigatran 150 mg b.i.d.): 1.01 /100 Person Years | Vascular Death, Rate ([2]; Dabigatran 150 mg b.i.d.): 2.27 /100 Person Years | All Death, RR ([2]; Dabigatran 150 mg vs. 110 mg): 0.97 | Disabling or Fatal Stroke Modified Rankin 3-6, RR ([2]; Dabigatran 150 mg vs. 110 mg): 0.70 | First Hospitalization, RR ([2]; Dabigatran 150 mg vs. 110 mg): 1.06 | Myocardial Infarction, RR ([2]; Dabigatran 150 mg vs. 110 mg): 1.02 | Non-disabling Stroke Modified Rankin 0-2, RR ([2]; Dabigatran 150 mg vs. 110 mg): 0.71 | Pulmonary embolism, RR ([2]; Dabigatran 150 mg vs. 110 mg): 1.27 | Stroke or systemic embolism, RR ([2]; Dabigatran 150 mg vs. 110 mg): 0.72 | Stroke, Hemorrhagic, RR ([2]; Dabigatran 150 mg vs. 110 mg): 0.85 | Stroke, Ischemic or Unspecified, RR ([2]; Dabigatran 150 mg vs. 110 mg): 0.68 | Stroke, RR ([2]; Dabigatran 150 mg vs. 110 mg): 0.70 | Vascular Death, RR ([2]; Dabigatran 150 mg vs. 110 mg): 0.94 | All Death, RR ([2]; Dabigatran 150 mg vs. Warfarin): 0.88 | Disabling or Fatal Stroke Modified Rankin 3-6, RR ([2]; Dabigatran 150 mg vs. Warfarin): 0.66 | First Hospitalization, RR ([2]; Dabigatran 150 mg vs. Warfarin): 0.97 | Myocardial Infarction, RR ([2]; Dabigatran 150 mg vs. Warfarin): 1.38 | Non-disabling Stroke Modified Rankin 0-2, RR ([2]; Dabigatran 150 mg vs. Warfarin): 0.62 | Pulmonary embolism, RR ([2]; Dabigatran 150 mg vs. Warfarin): 1.61 | Stroke or systemic embolism, RR ([2]; Dabigatran 150 mg vs. Warfarin): 0.66 | Stroke, Hemorrhagic, RR ([2]; Dabigatran 150 mg vs. Warfarin): 0.26 | Stroke, Ischemic or Unspecified, RR ([2]; Dabigatran 150 mg vs. Warfarin): 0.76 | Stroke, RR ([2]; Dabigatran 150 mg vs. Warfarin): 0.64 | Vascular Death, RR ([2]; Dabigatran 150 mg vs. Warfarin): 0.84 | Mortality rate, death from any cause ([2]; dabigatran 110 mg twice daily): 3.74 % per year | Rate of hemorrhagic stroke ([2]; dabigatran 110 mg twice daily): 0.12 % per year | Rate of myocardial infarction ([2]; dabigatran 110 mg twice daily): 0.73 % per year | Rate of net benefit-risk outcome (major vascular events, major bleeding and death) ([2]; dabigatran 110 mg twice daily): 7.37 % per year | Rate of the primary outcome, stroke or systemic embolism ([2]; dabigatran 110 mg twice daily): 1.55 % per year | Mortality rate, death from any cause ([2]; dabigatran 150 mg twice daily): 3.63 % per year | Rate of hemorrhagic stroke ([2]; dabigatran 150 mg twice daily): 0.10 % per year | Rate of myocardial infarction ([2]; dabigatran 150 mg twice daily): 0.74 % per year | Rate of net benefit-risk outcome (major vascular events, major bleeding and death) ([2]; dabigatran 150 mg twice daily): 7.22 % per year | Rate of the primary outcome, stroke or systemic embolism ([2]; dabigatran 150 mg twice daily): 1.11 % per year | Hepatotoxicity ([2]; human, in vivo): no evidence of hepatotoxicity | Stroke, systemic embolism, pulmonary embolism, myocardial infarction death or major bleed, Rate ([2]; Dabigatran 110 mg b.i.d.): 7.37 /100 Person Years | Stroke, systemic embolism, pulmonary embolism, myocardial infarction death or major bleed, RR ([2]; Dabigatran 110 mg vs. Warfarin): 0.92 | Stroke, systemic embolism, pulmonary embolism, myocardial infarction death or major bleed, Rate ([2]; Dabigatran 150 mg b.i.d.): 7.22 /100 Person Years | Stroke, systemic embolism, pulmonary embolism, myocardial infarction death or major bleed, RR ([2]; Dabigatran 150 mg vs. 110 mg): 0.98 | Stroke, systemic embolism, pulmonary embolism, myocardial infarction death or major bleed, RR ([2]; Dabigatran 150 mg vs. Warfarin): 0.90 | fraction unbound (Plasma protein binding): 0.65 to 0.75 | Prolongation of aPTT, ecarin clotting time, and thrombin clotting time [3]: dose dependent prolongation | Fatal major bleeds, number ([4]; 150 mg b.i.d.): 4 | Fatal major bleeds, number ([4]; 300 mg q.d.): 1 | Fatal bleeding events ([4]; all doses): 0.5 % per year | Fatal major bleeds, number ([4]; all doses): five | Intracranial bleed rate ([4]; all doses): 0.4 % per year | LFT abnormality ALT/ULN [4, 7]: >5x xULN (4×) and >5x^# xULN (2×) and >3x xULN (5×) and >3x^# xULN | LFT abnormality AST/ULN [4, 7]: >5x^# xULN (4×) and >5x xULN (4×) and >3x xULN (5×) | Serum half-life [5]: 12 to 17 h | half-life [6]: 12 to 17 h
